Source: PubChem BioAssay AID1320 (NMMLSC, 2008)
pEC50: −log10 of the molar value. Calls of active or inactive are those of the source. No rule for the calls is given here.

Biological target: Bcl-2-related protein A1 (Homo sapiens) (UniProt Q16548)
Assay: inhibitors of Bim binding to Bfl-1, dose response, biochemical, multiplexed, bead-based flow cytometry (AID 1320); as to percent span (inhibition): test concentration not given here
Details: Bim peptide-Bfl-1 binding, fluorescence

Bcl-2-related protein A1 (Homo sapiens), sequence (Q16548 whole entry, looked up): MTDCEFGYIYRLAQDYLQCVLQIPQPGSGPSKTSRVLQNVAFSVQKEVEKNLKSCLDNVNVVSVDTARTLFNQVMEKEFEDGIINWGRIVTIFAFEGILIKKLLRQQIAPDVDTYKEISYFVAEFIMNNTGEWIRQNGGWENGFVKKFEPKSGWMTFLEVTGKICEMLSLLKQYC

Structure (SMILES)	EC50	pEC50
COc1ccc(N2C(=O)C(Cl)=C(Nc3c(C)n(C)n(-c4ccccc4)c3=O)C2=O)cc1	inactive	
O=[N+]([O-])c1ccc(N/N=C/c2ccc(O)c(O)c2O)c(S(=O)(=O)N2CCOCC2)c1		5.35
O=C(N/N=C/c1ccc(O)c(O)c1O)/C(=C/c1ccc([N+](=O)[O-])cc1)NC(=O)c1ccccc1		5.28

Same assay, conditions: Bim peptide-Bfl-1 binding, fluorescence, hits give high values

Structure (SMILES)	percent span (inhibition)
COc1ccc(NC(=O)/C(Cl)=C(/Cl)S(=O)Cc2ccccc2)cn1 (stereo not drawn)	inactive
COc1ccc(NC(=O)/C(C#N)=C/c2c(C)nn(-c3ccc(F)cc3)c2Cl)cc1Cl	inactive
CC1=NN(c2ccc(C)cc2)C(=O)/C1=C\c1ccc(Br)s1	inactive
CN(CCc1ccccn1)C(=O)CCC1CCCN(C(=O)NC2CCCCC2)C1 (stereo not drawn)	inactive
Cc1ccc(SCCC(=O)Nc2ccc(Br)c(C)c2)cc1	inactive
Nc1ccc(N2CCN(CCCCN3C(=O)C4CCCN4C3=O)CC2)cc1 (stereo not drawn)	inactive
CCc1nnc(NC(=O)CSc2nnc(COc3ccc(C)cc3)n2-c2ccccc2)s1	inactive
CN(C)/C=C/C(=O)c1ccc(C(F)(F)F)cc1F	inactive
COc1ccc(C(=O)Nc2ccc(NC(=O)c3cccs3)cc2)cc1Cl	inactive
COc1cccc2c(SCC(=O)N/N=C/c3ccc(O)cc3O)cc(C)nc12	inactive
O=[N+]([O-])c1ccc(-c2cn(-c3ccc(Cl)cc3)c(=S)[nH]2)cc1	inactive
CCOC(=O)c1cc2c(=O)n3cccc(C)c3nc2n(Cc2ccco2)c1=NC(=O)c1ccccc1	inactive
COc1cccc(/C=N/Nc2nn3cnnc3c3ccccc23)c1	inactive
COC(=O)Cc1cc(=O)[nH]c(Nc2nc3ccccc3o2)n1	inactive
O=C(O)c1cccc(NC2=C(Cl)C(=O)c3ccccc3C2=O)c1	inactive
Cc1ccccc1-n1nc(SCC(=O)O)sc1=S	inactive
O=C(CSc1ccc2nnc(-c3ccncc3)n2n1)Nc1nccs1	inactive
NC(=O)CSc1nnc(Cn2cnc3ccccc32)o1	inactive
COP(=O)(CC(=O)O)c1ccccc1 (stereo not drawn)	inactive
c1ccc(-c2nnc(OCCN3CCOCC3)c3ccccc23)cc1	inactive
O=C(COc1ccc(Br)cc1CNC1CCCCC1)NCCc1ccccc1	inactive
COc1ccc(NC(=O)c2cccs2)cc1	inactive
CCN1/C(=C/c2ccc3cc(C)ccc3[n+]2CC)Sc2cc(C)c(C)cc21	inactive
CCOc1cc(/C=N/NC(=O)c2cccs2)cc([N+](=O)[O-])c1O	inactive

Structure (SMILES)	percent span (inhibition)
COc1ccc(/C=C2\SC(=O)NC2=S)cc1OC	inactive
O=C(CSc1nc2ccsc2c(=O)n1Cc1ccc(C(=O)O)cc1)NCC1CCCO1 (stereo not drawn)	inactive
O=C(COCC(=O)NCc1ccccc1)NCc1ccccc1	inactive
CNC(=O)c1sc(-c2ccccn2)nc1C	inactive
CCc1ccc(NC(=O)Cc2ccc(OC)cc2)cc1	inactive
COc1cc2[nH]c(=S)nc(NCCc3ccc(S(N)(=O)=O)cc3)c2cc1OC	inactive
CCOC(=O)CSc1nnc(-c2cccc(Cl)c2)n1CC	inactive
O=C(Cn1c(-c2ccccc2)noc1=O)N1CCC(Cc2ccccc2)CC1	inactive
COc1ccc(C(=O)Nc2ccc(C(=O)OCC(=O)c3cccc4ccccc34)cc2)cc1	inactive
Cc1cccc(C(=O)N2CCC(c3nc(-c4ccc(S(=O)(=O)N5CCOCC5)cc4)no3)CC2)c1	inactive
O=C1NC(=O)C2(Cc3c(nc4ccccn4c3=O)N3CCCCCC32)C(=O)N1Cc1ccccc1 (stereo not drawn)	inactive
CCOc1ccccc1NC(=O)CSc1nnc2ccc(-c3cccnc3)nn12	inactive
Cc1ccc(C(=O)N(CCCN(C)C)c2nc3ccc(Cl)cc3s2)cc1C	inactive
O=C(Nc1nnc(SCc2ccccn2)s1)C1CC(=O)N(c2ccccc2)C1 (stereo not drawn)	inactive
CCOc1cc(CNc2ccc(N(C)C)cc2)cc(Br)c1OCC(=O)NC(C)(C)C	inactive
c1cncc(-c2nnc3n2N=C(c2cccs2)CS3)c1	inactive
O=C(Nc1cccc(-c2ccc3nncn3n2)c1)c1ccco1	inactive
Nc1cccc(-c2cn3cccnc3n2)c1	inactive
Clc1ccc2c(N/N=C/c3ccc(Br)cc3)ccnc2c1	inactive
Cc1[nH]n(C(N)=S)c(=O)c1N=Nc1ccc(S(=O)(=O)N2CCCCCC2)cc1	inactive
CNc1ccccc(C(=O)/C=C/c2ccccc2OC)c1=O	inactive
Fc1ccc(Cn2nnnc2C(c2ccc(Cl)cc2)N2CCSCC2)cc1 (stereo not drawn)	inactive
CN(C)S(=O)(=O)N(CC(=O)Nc1ccccc1C(F)(F)F)c1ccccc1	inactive
Cc1cc(C(=O)NCCCN(C)C)c2ccccc2n1	inactive

Structure (SMILES)	percent span (inhibition)
CCOC(=O)CCCNC(=O)c1cncc(O)c1	inactive
O=C(O)c1ccc(NS(=O)(=O)c2ccc3c(c2)C(=O)c2ccccc2C3=O)cc1	inactive
Cc1onc(-c2ccccc2Cl)c1C(=O)Nc1nn[nH]n1	inactive
Cc1cnnn1-c1ccc(C(=O)CCl)cc1	inactive
COC(=O)c1ccc(C)c(NC(=O)CCNC(=O)c2ccc([N+](=O)[O-])cc2)c1	inactive
O=C(Nc1nccs1)c1ccc(COc2ccc(F)cc2)o1	inactive
OCCN1CCN(CCCc2c3c(cc4c2CCC4)CCC3)CC1	inactive
NCC(c1ccccc1)c1c[nH]c2ccccc12 (stereo not drawn)	inactive
O=C(C[n+]1ccc(-c2nnc3n2CCC3)cc1)c1ccc(Cl)c(Cl)c1	inactive
Cc1ccc(C(=O)CCC(=O)Nc2ccc(Cl)c(S(=O)(=O)Nc3cccc(Cl)c3)c2)cc1	inactive
CN(Cc1ccccc1)C(=O)c1[nH]cnc1C(=O)N[C@@H](CCCCNC(=O)OC(C)(C)C)C(=O)OC(C)(C)C	inactive
CC1=C2C(CCS2(=O)=O)CC2(C1)C(=O)OC(C)(C)OC2=O (stereo not drawn)	inactive
c1ccc(Nc2nc(-c3ccncc3)cs2)cc1	inactive
Cc1ccc(NC(=S)N2CCn3cccc3C2c2cccnc2)cc1 (stereo not drawn)	inactive
CCCCNC(=O)c1ccc2nc(-c3ccco3)c(-c3ccco3)nc2c1	inactive
CCN(CC)CCN(C(=O)c1ccc(N2C(=O)CCC2=O)cc1)c1nc2cc3c(cc2s1)OCCO3	inactive
C#CCOCCOCCOCCNc1nc(N2CCN(C(=O)[C@H]([C@@H](C)CC)n3cc([C@@H](N)CC(C)C)nn3)CC2)nc(N2CCN(C(=O)[C@H](Cc3cc4ccccc4[nH]3)n3cc([C@@H](N)Cc4ccc(O)cc4)nn3)CC2)n1	inactive
CCN1CCN(CC(=O)c2c[nH]c3ccc(C)cc23)CC1	inactive
COc1ccc(CCNC(=O)c2cc(-c3ccccn3)nc3c(Cl)cccc23)cc1OC	inactive
Cc1cc2nc(/C(C#N)=C/c3ccncc3)[nH]c2cc1C	inactive
CCC(CC)C(=O)Nc1cccc(SC)c1	inactive
O=C(NCC1CCCO1)c1ccc2c(=O)n(-c3ccc(F)cc3)c(=S)[nH]c2c1 (stereo not drawn)	inactive
O=C(COc1ccccc1)N1CCN(c2ncnc3c2cnn3-c2ccccc2)CC1	inactive
CCOc1cc(S(=O)(=O)N2CCCCC2)ccc1F	inactive

Structure (SMILES)	percent span (inhibition)
CCN1/C(=C/c2ccc3cc(C)cc(C)c3[n+]2CC)Sc2cc(C)ccc21	inactive
CC(C(=O)Nc1ccc([N+](=O)[O-])cc1)N1CCN(C/C=C/c2ccccc2)CC1 (stereo not drawn)	inactive
O=C1c2ccccc2C(=O)N1CN(C(=O)COc1ccc(Cl)cc1Cl)c1cccc(F)c1	inactive
CN1/C(=C\C(=O)Nc2ccc(Cl)cc2)C(C)(C)c2ccccc21	inactive
CSc1nnc2ccc(-c3cccs3)nn12	inactive
Cc1ccc2c(c1)C1CN(C)CCC1N2C(=O)Nc1cccc(Cl)c1 (stereo not drawn)	inactive
O=c1[nH]c(SCc2nc3ccccc3c(=O)n2-c2ccccc2C(F)(F)F)nc2ccccc12	inactive
COc1ccc(C2CC(=O)C3=C(C2)Nc2ccccc2NC3c2coc3ccccc3c2=O)cc1OC (stereo not drawn)	inactive
COc1ccc(N2CCN(C(=O)c3cc(=O)[nH]c4ccccc34)CC2)cc1	inactive
CCOC(=O)c1snc(-c2ccc(F)cc2)c1N	inactive
Cc1cccc(NC(=S)N2CCn3cccc3C2c2cccnc2)c1 (stereo not drawn)	inactive
CN(C)C(=O)N1CCC(C(=O)NC2CCCCCCC2)CC1	inactive
NNC(=O)COc1ccccc1F	inactive
CCNC(=S)Nc1cc(OCC)c(NC(=O)c2cccs2)cc1OCC	inactive
Cc1cccc(-n2c(-c3ccncc3)n[nH]c2=S)c1	inactive
Cc1ccc(NN2C(=O)C=CC2=O)cc1	inactive
COCCN=c1scc(-c2ccco2)n1/N=C/c1ccc(O)c(O)c1O	inactive
Cc1c(N2C(=O)c3ccc4c5c(ccc(c35)C2=O)CC4)c(=O)n(-c2ccccc2)n1C	inactive
C1=CC2c3ccccc3NC(c3ccncc3)C2C1 (stereo not drawn)	inactive
CC(/C=C/C(=O)c1ccc(C)cc1)=C\c1ccccc1	inactive
NC(=O)c1sc2nc3c(c(-c4ccco4)c2c1N)CCC3	inactive
COc1cc(/C=N/Nc2nn3cnnc3c3ccccc23)ccc1O	inactive
CCc1cccc(NC(=O)COc2ccccc2)c1	inactive
